Patent US6015560A, “Antibody recognizing endothelial cell ligand for leukocyte CR3” (priority 1995, dated 2000)

Experiments:
neutrophils = experiment: Transendothelial migration of neutrophils; assay type: cell-based, human; conditions: native FHA 1 μM
In short: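 CFSE-labelled human neutrophils (10^6/ml) pre-incubated 5 min on ice with peptides (0.01 mM) or native FHA (1 μM), then placed on TNF-alpha-stimulated (10 ng/ml, 4 h) HUVEC monolayers on collagen/fibronectin for 1 h at 37 °C. Transmigrated cells measured by fluorescence relative to cell-free wells; inhibition calculated versus M199-only neutrophils set at 100% migration.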

blood brain barrier = experiment: Rabbit meningitis model: CSF protein and lactate (blood brain barrier permeability); assay type: in vivo
In short: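 New Zealand white rabbits (2 kg) under anaesthesia challenged intracisternally with 10^8 heat-killed unencapsulated pneumococcus R6; peptides given IV in 1 ml saline 1 h later, at 0.1 μM, 10 μM or 10^-3 μM depending on peptide. CSF sampled hourly; protein by BCA and lactate assayed, compared by one-way ANOVA.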

[1] = 6 hours, peptides 10 μM, FHA 0.1 μM

Substance: filamentous hemagglutinin [native FHA]
- % Inhibition of TEM (neutrophils): 82±1%
- % Inhibition of TEM (neutrophils; listed as FHA): 82 ± 1%
- % Inhibition of TEM (neutrophils; listed as Intact FHA): 82±1%
- protein influx into CSF and lactate generation (in words) (blood brain barrier; 10 μM peptides, 0.1 μM FHA): significantly protective for protein influx and lactate generation
- Total protein in CSF (blood brain barrier; 6 hours): 1.70 ± 0.33 mg/mL
- Lactate in CSF (blood brain barrier; [1]): 25.0 ± 5.3 mg/100 ml
- Protein in CSF (blood brain barrier; [1]): 1.3 ± 0.3 mg/ml CSF
- Total protein in CSF (blood brain barrier; 7 hours): 1.86 ± 0.76 mg/mL
